Experimental data as given in US10653747B2, “ApoE mimetic peptides and higher potency to clear plasma cholesterol” (UAB RESEARCH FOUNDATION, priority 2014, dated 2020).
Ahx = NCCCCCC(=O)O

Columns and labels:
plasma cholesterol = assay: Plasma cholesterol reduction in apoE null mice after a single dose; assay type: in vivo; conditions: single dose in saline vehicle, at both 50 and 100 μg/mouse
Procedure: The study was carried out in apoE null mice (n=4 animals/group). The time points show the plasma cholesterol levels at the indicated times following a single dose administration. A single dose was administered using a saline vehicle.

VLDL = assay: Interaction of peptide with VLDL, displacement of apo E from VLDL
Procedure: It was determined that in MEF 1 cells with induced LDL receptors, LDL internalization was enhanced three, five and seven times by Ac-mE-18A-NH2, Ac-hE-18A-NH2, and Ac-hE(R)-18A-NH2 respectively. All three peptides increased degradation of LDL by 100 percent. […] However, only Ac-hE-18A-NH2-associated VLDL enhanced the uptake of VLDL six fold and degradation three fold compared to VLDL alone in spite of the absence of apoE. The LDL binding to fibroblasts in the presence of these peptides was not saturable, however, over the LDL concentration range studied.

[1] = system: MEF 1 cells with induced LDL receptors; assay: Uptake and degradation of human LDL by cells (LDL internalization, LDL degradation); assay type: cell-based
From the text: (§1) To test the hypothesis that a minimal arginine-rich Apo E receptor binding domain (141-150) was sufficient to enhance low density lipoprotein (LDL) and very low density lipoprotein (VLDL) uptake and clearance when covalently linked to a class A amphipathic helix, a peptide was synthesized in which the receptor binding domain of human Apo E, LRKLRKRLLR (SEQ ID NO:4) (hApo E[141-150] also referred to as “hE”), was linked to 18A, a well characterized high affinity lipid-associating peptide (DWLKAFYDKVAEKLKEAF (SEQ ID NO:5), also referred to as “18A”) to produce a peptide denoted as hApo E[141-150]-18A (also referred to as “hE-18A”) (see U.S. Pat. No. 6,506,880, which is hereby incorporated by reference in its entirety for its teaching of specific Apo E mimetics and their uses). Also synthesized was an end protected analog of hE-18A, denoted Ac-hE18A-NH2. […] The effect of the dual character peptides on the uptake and degradation of human LDL/VLDL by cells was then determined.
(§2) It was determined that in MEF 1 cells with induced LDL receptors, LDL internalization was enhanced three, five and seven times by Ac-mE-18A-NH2, Ac-hE-18A-NH2, and Ac-hE(R)-18A-NH2 respectively. […]

cells = assay: Uptake and degradation of peptide-associated VLDL by cells; assay type: cell-based; conditions: peptide-associated VLDL compared to VLDL alone, in the absence of apoE
From the text: as §1, §2

Substance	reducing plasma cholesterol (plasma cholesterol)	displacement of apo E from VLDL (VLDL)	LDL internalization enhanced [1]	increased degradation of LDL [1] [%]	enhanced degradation of VLDL (cells)	enhanced uptake of VLDL (cells)
Ac-Aha-LRRLRRRLLR-DWLKAFYDKVAEKLKEAF-NH2 ({Ac-Ahx}-LRRLRRRLLRDWLKAFYDKVAEKLKEAF-NH2; SMILES CC(=O)NCCCCCC(=O)N[C@@H](CC(C)C)C(=O)N[C@@H](CCCNC(=N)N)C(=O)N[C@@H](CCCNC(=N)N)C(=O)N[C@@H](CC(C)C)C(=O)N[C@@H](CCCNC(=N)N)C(=O)N[C@@H](CCCNC(=N)N)C(=O)N[C@@H](CCCNC(=N)N)C(=O)N[C@@H](CC(C)C)C(=O)N[C@@H](CC(C)C)C(=O)N[C@@H](CCCNC(=N)N)C(=O)N[C@@H](CC(=O)O)C(=O)N[C@@H](Cc1c[nH]c2ccccc12)C(=O)N[C@@H](CC(C)C)C(=O)N[C@@H](CCCCN)C(=O)N[C@@H](C)C(=O)N[C@@H](Cc1ccccc1)C(=O)N[C@@H](Cc1ccc(O)cc1)C(=O)N[C@@H](CC(=O)O)C(=O)N[C@@H](CCCCN)C(=O)N[C@H](C(=O)N[C@@H](C)C(=O)N[C@@H](CCC(=O)O)C(=O)N[C@@H](CCCCN)C(=O)N[C@@H](CC(C)C)C(=O)N[C@@H](CCCCN)C(=O)N[C@@H](CCC(=O)O)C(=O)N[C@@H](C)C(=O)N[C@@H](Cc1ccccc1)C(N)=O)C(C)C) [AC-Aha-[R]hE18A-NH2]	highly effective					
Ac-D-W-L-K-A-F-Y-D-K-V-A-E-K-L-K-E-A-F-NH2 (Ac-DWLKAFYDKVAEKLKEAF-NH2) [Ac-18A-NH2, control peptide; 18A is the lipid-associating peptide …, reference compound]		interacted with VLDL to cause a displacement of apo E from VLDL				
Ac-LRKLRKRLLRDWLKAFYDKVAEKLKEAF-NH2 [Ac-hE-18A-NH2]		interacted with VLDL to cause a displacement of apo E from VLDL	five	100	three	six
